The results in this text go back to PMC13163009, “Pyrimethamine Restores KEAP1-Mediated Degradation of Select NRF2 Mutants in Esophageal Squamous Cell Carcinoma” (Cancers, 2026).

Assay [1] deals with T1, KEAP1 (Kelch-like ECH-associated protein 1) (Homo sapiens, UniProt Q14145).
T1 construct: human recombinant KEAP1 (Gln2-Cys624)
The assay is described as follows: ITC with recombinant full-length KEAP1; SPR showed PYR modestly increases DLG(W24C) peptide binding to the Kelch domain.

Assay [2] concerns the target T2, Kelch fragment (Ala321-Glu611 of human KEAP1 protein) (human, UniProt Q14145 321-611, biotinylated (site not stated)).
T2 construct: Kelch-like ECH-associated protein 1 (KEAP1), human, Kelch fragment Ala321-Glu611; printed MW 34,038.03 Da; The printed mass (34,038.03 Da) looks larger than residues 321-611 alone, so extra residues or a tag for biotinylation may be present; also called Kelch domain; Kelch domain fragment of KEAP1; source: expressed in vitro, purified, biotinylated, validated by LC-MS
Nature of the assay: SPR; Biacore S200; biotinylated Kelch immobilised on a streptavidin chip; DLG peptides as analytes, 2-fold dilutions from 200 uM to 0.39 uM; 30 uL/min, 90 s association, 180 s dissociation; analysis at 15 °C; also run with PYR mixed into the analyte with the DLG peptides. The settings on record: both partners purified.

T2 sequence (Q14145 321-611): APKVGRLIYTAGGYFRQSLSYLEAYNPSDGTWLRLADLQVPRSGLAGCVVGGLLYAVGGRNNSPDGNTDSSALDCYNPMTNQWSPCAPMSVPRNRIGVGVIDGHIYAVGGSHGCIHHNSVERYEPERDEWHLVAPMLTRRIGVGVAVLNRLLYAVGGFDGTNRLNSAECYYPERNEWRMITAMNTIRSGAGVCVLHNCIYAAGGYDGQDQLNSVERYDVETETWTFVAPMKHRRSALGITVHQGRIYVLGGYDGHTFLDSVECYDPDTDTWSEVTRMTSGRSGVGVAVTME
T1 sequence (Q14145 2-624): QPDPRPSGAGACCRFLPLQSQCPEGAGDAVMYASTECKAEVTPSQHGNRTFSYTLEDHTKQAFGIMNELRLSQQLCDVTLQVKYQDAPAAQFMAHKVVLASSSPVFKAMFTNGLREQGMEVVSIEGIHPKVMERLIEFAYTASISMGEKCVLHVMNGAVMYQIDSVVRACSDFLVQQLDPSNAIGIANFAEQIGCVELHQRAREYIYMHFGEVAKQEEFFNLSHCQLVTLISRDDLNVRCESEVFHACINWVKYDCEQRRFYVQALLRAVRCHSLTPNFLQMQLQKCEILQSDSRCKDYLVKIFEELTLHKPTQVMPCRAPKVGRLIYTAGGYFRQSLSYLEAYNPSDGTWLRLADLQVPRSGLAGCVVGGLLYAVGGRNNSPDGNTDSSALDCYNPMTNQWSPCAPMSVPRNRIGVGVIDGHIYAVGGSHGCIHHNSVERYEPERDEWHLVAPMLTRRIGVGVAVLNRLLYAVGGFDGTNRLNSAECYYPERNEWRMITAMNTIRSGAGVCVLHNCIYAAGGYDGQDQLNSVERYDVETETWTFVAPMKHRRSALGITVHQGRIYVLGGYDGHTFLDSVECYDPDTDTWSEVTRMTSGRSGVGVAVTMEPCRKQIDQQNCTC

For `CCc1nc(N)nc(N)c1-c1ccc(Cl)cc1` [PYR, pyrimethamine], in assay [1], the Kd worked out at 13 µM.

B1: DLG^WT peptide (NRF2 residues 17-40) (peptide)
peptide: MDLIDILWRQDIDLGVSREVFDFS
notes: nuclear factor erythroid 2-related factor 2 (NRF2, NFE2L2), residues 17-40 with the DLG motif; also called DLG-containing NRF2 peptide; source: synthetic peptide
As to B1, the binding result in assay [2] is listed as “binds”.
